Test results: patent US20240287054A1, “COMPOUNDS THAT BIND NON-CANONICAL G-QUADRUPLEX STRUCTURES AND METHODS OF MAKING AND USING THE SAME” (The U.S.A., as Represented by the Secretary, Department of …, priority 2021, published 2024)

Experiments:
dsDNA = experiment: SPR binding to dsDNA; conditions: up to 5 μM compound injection
MYCN G4 DNA [1] = experiment: Circular dichroism (CD) thermal melting assay of MYCN G4; format: binding, human; conditions: 10 mM sodium phosphate pH 7.0, 5 mM KCl, 5 μM DNA
Description: For thermal melt assay, MYCN oligonucleotides were prepared in a low KCl buffer (10 mM Tris, pH7.0, 5 mM KCl) at 5 μM concentration. To test the stabilization effect, G4 samples were incubated with and without 20 μM compound (final solution containing 5% DMSO). Then a total of 300 μL solution was added in a cuvette and heated from 20° C. to 95° C. in a CD spectrometer with an interval of 1° C. To calculate the melting temperature (Tm), the peak of CD spectrum at 263 nm was tracked, and […] vs temperature was plotted and fitted using a nonlinear sigmoidal dose-response model with a variable slope in GraphPad Prism 8 software. The shifting of melting temperature (ΔTm) was calculated using Tm (compound)−Tm (DMSO).
For CD melting assay, MYCN oligonucleotides were prepared in KCl buffer (10 mM sodium phosphate, pH7.0, 5 mM KCl) at 5 μM concentration. To test the stabilization effect of the compounds, MYCN G4 DNA samples were mixed with/without the compound (final solution containing 5% DMSO) at designed concentration. Then a total of 300 μL solution was added in a cuvette and heated from 20 to 80° C. in a CD spectrometer with an interval of 1° C. To calculate the melting temperature (Tm), the peak of CD spectrum at 263 nm was tracked, and […] vs temperature was plotted and fitted using a nonlinear sigmoidal dose-response model with a variable slope in GraphPad Prism 8 software.

MYCN hairpin-G4 DNA = experiment: FIA using compound fluorescence (Ex 340/Em 500 nm), titration with unlabeled MYCN G4 DNA; format: binding, human; conditions: 100 nM compound titrated with folded unlabeled MYCN G4
Description: In this study, FIA was used for validating the bindings between certain bivalent and MYCN G4 oligos. To measure the binding affinity, a solution of each compound was prepared in triplicate in a 96 well-plate (Costar, black side clear bottom), resulting in a final concentration of 100 nM (5% final DMSO in the working solution). Unlabeled MYCN G4 DNA was folded based on the above-mentioned annealing method, then added into the well plate resulting in different concentrations by a seral dilution. The plate was incubated at room temperature for 30 min, followed by centrifuging at 500 rpm for 2 minutes. The fluorescence intensity was then quantitatively recorded by a Synergy Mx microplate reader (BioTek) at Ex 340 nm/Em 500 nm. The fluorescence intensities were then normalized, and the binding affinity was calculated by fitting the curve using one-site total model in GraphPad Prism 8.3.1 software.

MYCN G4 DNA [2] = experiment: Surface plasmon resonance (SPR) with immobilized biotinylated MYCN G4 DNA; format: binding, human
Description: Surface plasmon resonance (SPR) analysis. The SPR binding assays were performed with a BIAcore 3000 (GE Healthcare) instrument. A CM5 SPR biochip was loaded into the system and primed with running buffer (10 mM Tris, pH7.0, 100 mM KCl, 0.005% Tween 20, 5% DMSO) with a flow rate of 5 μL/min. Then both Flow Cell (Fc) 1 and 2 were activated by EDC/NHS (0.4 M/0.1 M) aqueous solution for 15 min, followed with an injection of streptavidin (SA) solution (0.2 mg/mL in 10 mM sodium acetate buffer, pH4.5) for 30 minutes. After the immobilization amount of SA reached 8,000-10,000 RU, the surface was deactivated by flowing 1 M Ethanolamine aqueous solution (pH 8.5) for 10 min and regenerated with 10 mM NaOH for 2 min to remove the unbound SA. In the meantime, biotinylated MYCN G4 DNA was prepared at 5 μM in the annealing buffer and heated up to 95° C. for 5 min and slowly cooled down. After annealing, a total of 150 μL solution was injected in the Fc 2 of SPR system for 30 min to immobilize DNA onto the chip surface. The small molecule solutions were tested once the baseline was stable.
To detect the binding signal as well as the binding affinity, a higher flowing rate (25 μL/min) was used in both Fc 1 (reference) and Fc 2 (DNA). Each of the compound solution was prepared at 20× designed the concentrations in DMSO, and then diluted into non-DMSO running buffer, resulting in a final concentration of 5% DMSO. Then, a total of 50 μL compound solution was injected in Fc 1-2 flow path for 120 s for association, followed with 200 s running of buffer for dissociation. An injection of 50 μL regeneration buffer (1 M KCl) could be performed between two samples if necessary. The final binding curve was obtained by reference subtraction. To determine the binding affinity (KD), a series of diluted compound solutions were injected and KD was calculated by BIAevaluation 4.0 software (GE Healthcare) using Langmuir 1:1 binding model.
In this example, SPR binding assays were performed to analyze binding activity of representative bivalent compounds of the present disclosure. The compounds of this example included a non-canonical binder component and a G4 stacker component. A BIAcore 3000 (GE Healthcare) instrument was used. A CM5 SPR biochip was used and primed with running buffer (10 mM Tris, pH7.0, 100 mM KCl, 0.005% Tween 20, 5% DMSO). To immobilize the compounds onto the chip surface, the flow rate was set as 5 μL/min. Then the carboxylated dextran on the chip surface was activated by EDC/NHS (0.4 M/0.1 M) aqueous solution for 15 min, followed with an injection of streptavidin (SA) solution (0.2 mg/mL in 10 mM sodium acetate buffer, pH 4.5) for 30 minutes. After the immobilization amount of SA, the surface was quenched by injecting 1 M ethanolamine (EA) aqueous solution (pH 8.5) for 10 min and regenerated with 10 mM NaOH for 2 min to remove the physical adsorption. Furthermore, biotinylated MYCN G4 DNA was prepared at 5 μM in the annealing buffer and heated up to 95° C. for 5 min followed with slowly cooling down to room temperature within 1 h. After annealing, a total of 150 μL solution was injected in the Fc 2 of SPR system for 30 min to immobilize DNA onto the chip surface. The compound solutions were then tested once the baseline was stable.
To detect the binding signal as well as the binding affinity, a higher flowing rate (25 μL/min) was used in both Fc 1 (blank) and Fc 2 (target). Each of the compound solutions was prepared at 20× designed the concentrations in DMSO, and then diluted into non-DMSO running buffer, resulting in a final concentration of 5% DMSO. Then, a total of 50 μL compound solution was injected in Fc 1-2 flow path for 120 s for association, followed with 200 s running of buffer for dissociation. An injection of 50 μL regeneration buffer (1 M KCl) could be performed between two samples if necessary. The final binding curve was obtained by referencing the blank channel (Fc 1). […]

For `COc1ccc2nc3cc(Cl)ccc3c(NCCCNCCCl)c2c1` [Acridine ICR 191, reference compound], the “binding to dsDNA on SPR” value (dsDNA) was “dose-dependent binding signals”, the “ΔTm of MYCN G4” value (MYCN G4 DNA [1]) was 4.6 °C and the Kd (MYCN hairpin-G4 DNA) was 1040 ± 150 nM. The SPR binding kinetics (MYCN G4 DNA [2]; MYCN G4 binding curves) was “fast-on/off” and the Kd (MYCN G4 DNA [2]; MYCN hairpin G4, SPR titration, read-out: KD by SPR) was 821 ± 184 nM.
